Reference: ChEMBL document CHEMBL3832761, “MMV Pathogen Box Bioactivity Data” (2017)
In brackets after ≈: the same amount, converted by molar mass.

Key:
[1] = test system: Mycobacterium tuberculosis; assay: AntiMycobacterium tuberculosis activity 1-week GAST/Fe MIC (uM); format: functional; settings: 168 h
[2] = test system: Mycobacterium tuberculosis; assay: AntiMycobacterium tuberculosis activity 2-week GAST/Fe MIC (uM); format: functional; settings: 336 h
[3] = test system: Mycobacterium tuberculosis; assay: AntiMycobacterium tuberculosis activity 1-week 7H9/ADC/Tw MIC (uM); format: functional; settings: 168 h
[4] = test system: Mycobacterium tuberculosis; assay: AntiMycobacterium tuberculosis activity 2-week 7H9/ADC/Tw MIC (uM); format: functional; settings: 336 h
[5] = test system: Mycobacterium tuberculosis; assay: AntiMycobacterium tuberculosis activity 2-week Alamar Blue 7H9/ADC/Tw MIC (uM); format: functional; settings: 336 h
[6] = test system: Mycobacterium tuberculosis; assay: AntiMycobacterium tuberculosis activity 1-week 7H9/glucose/BSA/Tx MIC (uM); format: functional; settings: 168 h
[7] = test system: Mycobacterium tuberculosis; assay: AntiMycobacterium tuberculosis activity 2-week 7H9/glucose/BSA/Tx MIC (uM); format: functional; settings: 336 h
[8] = test system: Mycobacterium tuberculosis; assay: AntiMycobacterium tuberculosis activity 1-week 7H9/DPPC/cholesterol/BSA/Tx MIC (uM); format: functional; settings: 168 h
[9] = test system: Mycobacterium tuberculosis; assay: AntiMycobacterium tuberculosis activity 2-week 7H9/DPPC/cholesterol/BSA/Tx MIC (uM); format: functional; settings: 336 h
[10] = test system: Mycobacterium tuberculosis; assay: AntiMycobacterium tuberculosis activity 1-week 7H9/cholesterol/BSA/Tx MIC (uM); format: functional; settings: 168 h
[11] = test system: Mycobacterium tuberculosis; assay: AntiMycobacterium tuberculosis activity 2-week Alamar Blue 7H9/cholesterol/BSA/Tx MIC (uM); format: functional; settings: 336 h
[12] = test system: Mycobacterium tuberculosis; assay: (§1) AntiMycobacterium tuberculosis activity day 10 in 7H9/2.5mM butyrate/pH6/0.1mM nitrite MIC90 (uM); format: functional; settings: 240 h
[13] = test system: Mycobacterium tuberculosis; assay: AntiMycobacterium tuberculosis activity day 21 in 7H9/2.5mM butyrate/pH6/0.1mM nitrite MIC90 (uM); format: functional; settings: 504 h
[14] = test system: Mycobacterium tuberculosis; assay: as §1; format: functional; settings: 240 h; remark: listed apart in the source
[15] = test system: Mycobacterium tuberculosis; assay: AntiMycobacterium tuberculosis activity day 21 MIC99 in 7H9/2.5mM butyrate/pH6/0.1mM nitrite MIC99 (uM); format: functional; settings: 504 h
HepG2 [16] = assay: HepG2 galactose CC50 (uM) Cytotoxicity; format: functional
HepG2 [17] = assay: HepG2 glucose CC50 (uM) Cytotoxicity; format: functional
Plasmodium falciparum [18] = assay: Antimalarial activity: Asexual Blood Stage Plasmodium falciparum 3D7 IC50 (uM); format: functional, organism-based
Plasmodium falciparum [19] = assay: Antimalarial activity: Asexual Blood Stage Plasmodium falciparum Dd2 IC50 (uM); format: functional, organism-based
Plasmodium falciparum [20] = assay: Antimalarial activity: Gametocytes Plasmodium falciparum NF54 Gametocytes Stage V IC50 (uM); format: functional, organism-based
[21] = test system: Mycobacterium tuberculosis; assay: AntiMycobacterium tuberculosis activity Non-Replicating form: Average MIC90 (uM); format: functional
[22] = test system: Mycobacterium tuberculosis; assay: AntiMycobacterium tuberculosis activity Replicating form: Average MIC90 (uM); format: functional
HepG2 [23] = assay: HepG2 CC50 (uM) Cytotoxicity; format: functional; settings: Homo sapiens

O=[N+]([O-])c1cn2c(n1)OC[C@@H](OCc1ccc(OC(F)(F)F)cc1)C2 [PRETOMANID]
MIC [1]: 0.2 µM (≈ 0.0719 µg/mL) | MIC [2]: 0.15 µM (≈ 0.0539 µg/mL) | MIC [3]: 0.39 µM (≈ 0.14 µg/mL) | MIC [4]: 0.39 µM (≈ 0.14 µg/mL) | MIC [5]: 0.39 µM (≈ 0.14 µg/mL) | MIC [6]: 0.39 µM (≈ 0.14 µg/mL) | MIC [7]: 0.6 µM (≈ 0.216 µg/mL) | MIC [8]: 0.2 µM (≈ 0.0719 µg/mL) | MIC [9]: 0.2 µM (≈ 0.0719 µg/mL) | MIC [10]: 0.1 µM (≈ 0.0359 µg/mL) | MIC [11]: 0.3 µM (≈ 0.108 µg/mL) | MIC90 [12]: 0.39 µM (≈ 0.14 µg/mL) | MIC90 [13]: 0.78 µM (≈ 0.28 µg/mL) | MIC90 [14]: 0.78 µM (≈ 0.28 µg/mL) | MIC [15]: 3.1 µM (≈ 1.11 µg/mL) | CC50 (HepG2 [16]; Homo sapiens, HepG2): > 50 µM | CC50 (HepG2 [17]; Homo sapiens, HepG2): > 50 µM

CCc1ccc(C(NCc2nc(N)nc(N(C)C)n2)C(C)C)cc1 (stereo not given)
IC50 (Plasmodium falciparum [18]): > 2 µM | IC50 (Plasmodium falciparum [19]): > 2 µM | IC50 (Plasmodium falciparum [20]): 0.08 µM

COc1cccc(-n2nnnc2S(=O)(=O)Cc2ccccc2)c1
MIC [1]: 1.2 µM (≈ 0.396 µg/mL) | MIC [2]: 1.56 µM (≈ 0.515 µg/mL) | MIC [3]: 25 µM (≈ 8.26 µg/mL) | MIC [4]: 37 µM (≈ 12.2 µg/mL) | MIC [5]: 25 µM (≈ 8.26 µg/mL) | MIC [6]: 12.5 µM (≈ 4.13 µg/mL) | MIC [7]: 37 µM (≈ 12.2 µg/mL) | MIC [8]: 25 µM (≈ 8.26 µg/mL) | MIC [9]: 50 µM (≈ 16.5 µg/mL) | MIC [10]: 25 µM (≈ 8.26 µg/mL) | MIC [11]: 50 µM (≈ 16.5 µg/mL) | MIC90 [12]: 3.12 µM (≈ 1.03 µg/mL) | MIC90 [13]: 6.25 µM (≈ 2.06 µg/mL) | MIC90 [14]: 6.25 µM (≈ 2.06 µg/mL) | MIC [15]: 6.25 µM (≈ 2.06 µg/mL) | CC50 (HepG2 [16]): 30.6 µM | CC50 (HepG2 [16]; Homo sapiens, HepG2): 28.5 µM | CC50 (HepG2 [17]): 17.9 µM | CC50 (HepG2 [17]; Homo sapiens, HepG2): 19.1 µM

CCOC(=O)c1c(NC(=O)c2c(F)c(F)c(F)c(F)c2F)sc(C(N)=O)c1C
MIC90 [21]: 0.23 µM (≈ 0.0971 µg/mL) | MIC [1]: 0.07 µM (≈ 0.0296 µg/mL) | MIC [2]: 0.1 µM (≈ 0.0422 µg/mL) | MIC [3]: 0.1 µM (≈ 0.0422 µg/mL) | MIC [4]: 0.39 µM (≈ 0.165 µg/mL) | MIC [5]: 0.39 µM (≈ 0.165 µg/mL) | MIC [6]: 0.1 µM (≈ 0.0422 µg/mL) | MIC [7]: 0.39 µM (≈ 0.165 µg/mL) | MIC [8]: 0.05 µM (≈ 0.0211 µg/mL) | MIC [9]: 0.3 µM (≈ 0.127 µg/mL) | MIC [10]: 0.07 µM (≈ 0.0296 µg/mL) | MIC [11]: 0.39 µM (≈ 0.165 µg/mL) | MIC90 [12]: 0.78 µM (≈ 0.329 µg/mL) | MIC90 [13]: 6.25 µM (≈ 2.64 µg/mL) | MIC90 [14]: > 50 µM | MIC [15]: > 50 µM | MIC90 [22]: < 0.25 µM | CC50 (HepG2 [23]): 4.2 µM | CC50 (HepG2 [16]): > 50 µM | CC50 (HepG2 [16]; Homo sapiens, HepG2): 48.8 µM | CC50 (HepG2 [17]): 23.5 µM | CC50 (HepG2 [17]; Homo sapiens, HepG2): 31.7 µM

Brc1cncc(-c2cc(NCCCn3ccnc3)nc(-c3ccccc3)n2)c1
MIC [1]: 12.5 µM (≈ 5.44 µg/mL) | MIC [2]: 12.5 µM (≈ 5.44 µg/mL) | MIC [3]: 37 µM (≈ 16.1 µg/mL) | MIC [4]: 25 µM (≈ 10.9 µg/mL) | MIC [5]: 12.5 µM (≈ 5.44 µg/mL) | MIC [6]: 4.7 µM (≈ 2.05 µg/mL) | MIC [7]: 12.5 µM (≈ 5.44 µg/mL) | MIC [8]: 6.25 µM (≈ 2.72 µg/mL) | MIC [9]: 9.4 µM (≈ 4.09 µg/mL) | MIC [10]: 9.4 µM (≈ 4.09 µg/mL) | MIC [11]: 6.25 µM (≈ 2.72 µg/mL) | MIC90 [12]: 12.5 µM (≈ 5.44 µg/mL) | MIC90 [13]: 12.5 µM (≈ 5.44 µg/mL) | MIC90 [14]: > 50 µM | MIC [15]: > 50 µM | CC50 (HepG2 [16]): > 50 µM | CC50 (HepG2 [16]; Homo sapiens, HepG2): 43.6 µM | CC50 (HepG2 [17]): 28.3 µM | CC50 (HepG2 [17]; Homo sapiens, HepG2): 16.4 µM

CCOc1ccc(-c2nc(CNCCc3ccc(F)cc3)cs2)cc1
MIC [1]: 19 µM (≈ 6.77 µg/mL) | MIC [2]: 12.5 µM (≈ 4.46 µg/mL) | MIC [3]: 25 µM (≈ 8.91 µg/mL) | MIC [4]: 25 µM (≈ 8.91 µg/mL) | MIC [5]: 25 µM (≈ 8.91 µg/mL) | MIC [6]: 19 µM (≈ 6.77 µg/mL) | MIC [7]: 19 µM (≈ 6.77 µg/mL) | MIC [8]: 12.5 µM (≈ 4.46 µg/mL) | MIC [9]: 12.5 µM (≈ 4.46 µg/mL) | MIC [10]: 9.4 µM (≈ 3.35 µg/mL) | MIC [11]: 12.5 µM (≈ 4.46 µg/mL) | MIC90 [12]: 25 µM (≈ 8.91 µg/mL) | MIC90 [13]: 25 µM (≈ 8.91 µg/mL) | MIC90 [14]: 50 µM (≈ 17.8 µg/mL) | MIC [15]: 50 µM (≈ 17.8 µg/mL) | CC50 (HepG2 [16]): 24 µM | CC50 (HepG2 [16]; Homo sapiens, HepG2): 21.2 µM | CC50 (HepG2 [17]): 35.4 µM | CC50 (HepG2 [17]; Homo sapiens, HepG2): 33.3 µM

CC(=O)NC[C@H]1CN(c2ccc(N3CCSCC3)c(F)c2)C(=O)O1 [SUTEZOLID]
MIC [1]: 0.2 µM (≈ 0.0707 µg/mL) | MIC [2]: 0.6 µM (≈ 0.212 µg/mL) | MIC [3]: 1.2 µM (≈ 0.424 µg/mL) | MIC [4]: 1.2 µM (≈ 0.424 µg/mL) | MIC [5]: 0.78 µM (≈ 0.276 µg/mL) | MIC [6]: 0.6 µM (≈ 0.212 µg/mL) | MIC [7]: 1.2 µM (≈ 0.424 µg/mL) | MIC [8]: 0.6 µM (≈ 0.212 µg/mL) | MIC [9]: 1.2 µM (≈ 0.424 µg/mL) | MIC [10]: 0.39 µM (≈ 0.138 µg/mL) | MIC [11]: 0.78 µM (≈ 0.276 µg/mL) | MIC90 [12]: 0.19 µM (≈ 0.0671 µg/mL) | MIC90 [13]: 0.39 µM (≈ 0.138 µg/mL) | MIC90 [14]: 0.39 µM (≈ 0.138 µg/mL) | MIC [15]: 0.78 µM (≈ 0.276 µg/mL) | CC50 (HepG2 [16]; Homo sapiens, HepG2): > 50 µM | CC50 (HepG2 [17]; Homo sapiens, HepG2): > 50 µM

O=C(N[C@H](Cc1ccccc1)C(=O)Nc1ccccc1N1CCOCC1)c1cccs1
MIC [1]: 0.15 µM (≈ 0.0653 µg/mL) | MIC [2]: 0.15 µM (≈ 0.0653 µg/mL) | MIC [3]: 1.2 µM (≈ 0.523 µg/mL) | MIC [4]: 1.2 µM (≈ 0.523 µg/mL) | MIC [5]: 1.2 µM (≈ 0.523 µg/mL) | MIC [6]: 3.13 µM (≈ 1.36 µg/mL) | MIC [7]: 4.7 µM (≈ 2.05 µg/mL) | MIC [8]: 2.3 µM (≈ 1 µg/mL) | MIC [9]: 2.3 µM (≈ 1 µg/mL) | MIC [10]: 1.56 µM (≈ 0.679 µg/mL) | MIC [11]: 3.13 µM (≈ 1.36 µg/mL) | MIC90 [12]: 6.25 µM (≈ 2.72 µg/mL) | MIC90 [13]: 12.5 µM (≈ 5.44 µg/mL) | MIC90 [14]: > 50 µM | MIC [15]: > 50 µM | CC50 (HepG2 [16]; Homo sapiens, HepG2): > 50 µM | CC50 (HepG2 [17]; Homo sapiens, HepG2): > 50 µM

COc1ccc2nccc(NC(=O)C3CCN(CCc4ccc(Cl)cc4)CC3)c2n1
MIC [1]: 0.3 µM (≈ 0.127 µg/mL) | MIC [2]: 0.39 µM (≈ 0.166 µg/mL) | MIC [3]: 0.39 µM (≈ 0.166 µg/mL) | MIC [4]: 0.39 µM (≈ 0.166 µg/mL) | MIC [5]: 0.39 µM (≈ 0.166 µg/mL) | MIC [6]: 0.39 µM (≈ 0.166 µg/mL) | MIC [7]: 0.78 µM (≈ 0.331 µg/mL) | MIC [8]: 0.39 µM (≈ 0.166 µg/mL) | MIC [9]: 0.78 µM (≈ 0.331 µg/mL) | MIC [10]: 0.39 µM (≈ 0.166 µg/mL) | MIC [11]: 0.6 µM (≈ 0.255 µg/mL) | MIC90 [12]: 0.39 µM (≈ 0.166 µg/mL) | MIC90 [13]: 0.78 µM (≈ 0.331 µg/mL) | MIC90 [14]: > 50 µM | MIC [15]: > 50 µM | CC50 (HepG2 [16]; Homo sapiens, HepG2): > 50 µM | CC50 (HepG2 [17]; Homo sapiens, HepG2): > 50 µM
